Test results as given in patent US12521393B2, “Cytotoxicity targeting chimeras for CCR2-expressing cells” (GLAXOSMITHKLINE INTELLECTUAL PROPERTY DEVELOPMENT LIMITED, priority 2021, dated 2026).
Counter-ions that a name gives are not always drawn.

What was measured:
[1] = tested on: CCR2 expressing cells (CD11b+Ly6c+Hi) in peripheral blood; test: In vivo depletion assay, flow cytometry of peripheral blood (Example 201); parameters: species or system human CCR2 knock-in mice (C57 background); conditions: hCCR2 knock-in mice, IV 0.1 mpk compound + 10 mpk anti-cotinine antibody (SEQ ID NO: 13/14), peripheral blood at 48 hr
Description: Stock solution preparation. Stock solutions of compounds of Formula (I) were prepared at 20 mg/mL and 100 mg/mL in […] for PK/PD and dose tolerability studies respectively. Stock solutions were stored at […] until further usage. on the day of experiment, the stock Solution of the compound of Formula (I) was removed from storage at […] and thawed at room temperature. Anti-cotinine antibody having a heavy chain sequence of SEC ID NO: 13 and a light chain sequence of SEQ ID NO: 14 (rabbit variable region sequence with mouse IgG2a Fc domain), if required was removed from storage at −80° C. and thawed at room temperature. Antibody vials were immediately transferred into wet ice after thawing. Compounds of Formula (I) were further diluted in DMSO as per experimental requirements.
The formulation composition was Saline: DMSI: PBS.
Saline was added based on the quantity required and then stock solution of the compound of Formula (I) prepared in DMSO, followed by addition of antibody in PBS. Formulations were incubated at room temperature for 30 minutes before administration to the mouse. DMSO was used at 1 to % (v/v) in the final formulation.
After bleeding, each mouse was sacrificed by cervical dislocation. […] Flow Cytometry Analysis:
CCR2 depletion in peripheral blood was determined by flow cytometry. Briefly, peripheral blood was collected from all animals at the end of study termination and processed. Blood samples were lysed using 1×RBC Lysis buffer and the resulting cell pellet was washed twice in FACS buffer (HBSS containing 5% FBS). Cells were subjected to Fc blocking using mouse Fc block from Biolegend (Trustain, anti-mouse CD16/32, Cat: 101319) to block non-specific binding followed by surface staining for immune markers (CD45, CD3, CD11 b, Ly6C, human CCR2). Surface staining was done for 30 minutes in ice and cells were washed twice to remove unbound antibodies. Cells were stained with 7AAD to determine viability and acquired on BD FACSVerse flow cytometer. Appropriate FMO controls and single-color controls were included in the experiment for gating and compensation respectively.
Percent depletion of CD11 b+Ly6c+Hi cells and CCR2 expression for the different treatment groups was determined.

[2] = tested on: endogenous target monocytes in human PBMC; test: PBMC ex vivo monocyte depletion flow cytometry assay (Example 200); type: cell-based; conditions: with anti-cotinine antibody (SEQ ID NO: 11/12), 18-24 hours, EC50 in molar, read-out: Ex Vivo Depletion Assay pEC50 (converted)
Method in brief: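 Monocyte depletion is reported as pEC50, averaged or given individually across runs, and read by flow cytometry staining CD45, CD14 and CD4 with a viability dye. Compounds, diluted four-fold over 11 points from 1 mM DMSO stocks, were combined with 30 μg/mL Fc-enhanced anti-cotinine antibody and human PBMC, then incubated 18-24 h at 37° C.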

[3] = biological target: human alpha1 nicotinic acetylcholine (nACh) receptor (Homo sapiens, UniProt P02708); test: Nicotinic acetylcholine receptor antagonism assay, IONFlux automated patch clamp (Example 203); type: cell-based
Description: Cells expressing human alpha1 nicotinic acetylcholine (nACh) receptor (nAChR) were washed and dissociated using Trypsin containing buffer. Cells were then washed and seeded at a density of 3-5 million cells/mL and allowed to grow for 3 days. Then, 60-80 μL of cells were added to plates and incubated with dose response of an ARM compound of Formula (I) with a top concentration of either 10 μM or 100 μM. The receptor was then stimulated via addition of acetylcholine (ACh) and activation of the receptor was monitored via the IONFlux automated patch clamp system. IonFlux Data Analyzer software was utilized to perform leak subtraction and measure (min) peak current amplitude.
Data processing: (1) Current values recorded for vehicle only applications in individual traps/patterns were subtracted from corresponding current amplitude values for control, test article and control+test article. (2) Control response was calculated as % of the average response of the 3rd out of total 3 ACh (10 mM) applications alone. In rare situations, if the 3rd ACh response was obscured due to technical artifacts, the 2nd and/or 1st ACh (10 mM) application was considered as control. The peak current amplitude generated in the presence of each test article concentration was then used to calculate the % inhibition as compared to control response (10 mM ACh alone). These estimates were further corrected for vehicle response and run down corrected by normalizing with time matched control responses (10 mM ACh alone). The corrected percentages were then fit with a non-linear function in GraphPad Prism 6 (or later versions) to determine the IC50.
Exclusion criteria: (i) any n's with poor recording quality, (ii) control current amplitude <500 pA or (iii) significant outliers, as determined by the Grubbs test.
ARMs compounds of Formula (I) of the invention were tested for antagonism of the nAChR in the above assay in […] experimental runs and the results are shown in Table 7 below. Antagonistic activity of the compounds of Formula (I) of the invention is reported as an IC50 value (half maximal inhibitory concentration) and the maximum percentage antagonism observed at the highest concentration of compound of Formula (I) tested, as indicated in Table 7. For compounds tested in more than one experimental run, the IC50 value is reported as an average

Sequence of human alpha1 nicotinic acetylcholine (nACh) receptor (P02708 21-457): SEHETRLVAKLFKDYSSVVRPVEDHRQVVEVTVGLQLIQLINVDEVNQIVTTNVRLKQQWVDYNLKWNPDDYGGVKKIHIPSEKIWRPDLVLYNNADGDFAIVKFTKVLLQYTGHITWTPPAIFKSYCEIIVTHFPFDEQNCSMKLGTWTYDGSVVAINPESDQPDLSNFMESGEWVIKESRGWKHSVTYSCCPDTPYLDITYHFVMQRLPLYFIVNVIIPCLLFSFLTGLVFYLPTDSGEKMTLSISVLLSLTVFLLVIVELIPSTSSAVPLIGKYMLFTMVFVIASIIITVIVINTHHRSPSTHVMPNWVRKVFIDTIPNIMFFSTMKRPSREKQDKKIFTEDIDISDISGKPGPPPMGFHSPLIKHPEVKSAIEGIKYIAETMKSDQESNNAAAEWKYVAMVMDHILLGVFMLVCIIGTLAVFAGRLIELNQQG
Sequence of human alpha1 nicotinic acetylcholine (nACh) receptor (P11230 24-501 partner): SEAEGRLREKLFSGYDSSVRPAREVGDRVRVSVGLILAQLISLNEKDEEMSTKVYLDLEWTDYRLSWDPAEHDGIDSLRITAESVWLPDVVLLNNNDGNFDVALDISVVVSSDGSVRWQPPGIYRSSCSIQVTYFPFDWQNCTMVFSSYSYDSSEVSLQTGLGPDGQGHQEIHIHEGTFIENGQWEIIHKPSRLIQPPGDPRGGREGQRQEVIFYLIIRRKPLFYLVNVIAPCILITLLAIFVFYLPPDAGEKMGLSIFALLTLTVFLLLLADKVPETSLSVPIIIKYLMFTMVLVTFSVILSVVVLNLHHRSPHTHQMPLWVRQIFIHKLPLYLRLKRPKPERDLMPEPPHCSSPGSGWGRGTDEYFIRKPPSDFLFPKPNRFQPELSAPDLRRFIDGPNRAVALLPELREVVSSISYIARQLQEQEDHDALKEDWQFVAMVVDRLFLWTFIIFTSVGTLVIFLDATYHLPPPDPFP
Sequence of human alpha1 nicotinic acetylcholine (nACh) receptor (Q07001 22-517 partner): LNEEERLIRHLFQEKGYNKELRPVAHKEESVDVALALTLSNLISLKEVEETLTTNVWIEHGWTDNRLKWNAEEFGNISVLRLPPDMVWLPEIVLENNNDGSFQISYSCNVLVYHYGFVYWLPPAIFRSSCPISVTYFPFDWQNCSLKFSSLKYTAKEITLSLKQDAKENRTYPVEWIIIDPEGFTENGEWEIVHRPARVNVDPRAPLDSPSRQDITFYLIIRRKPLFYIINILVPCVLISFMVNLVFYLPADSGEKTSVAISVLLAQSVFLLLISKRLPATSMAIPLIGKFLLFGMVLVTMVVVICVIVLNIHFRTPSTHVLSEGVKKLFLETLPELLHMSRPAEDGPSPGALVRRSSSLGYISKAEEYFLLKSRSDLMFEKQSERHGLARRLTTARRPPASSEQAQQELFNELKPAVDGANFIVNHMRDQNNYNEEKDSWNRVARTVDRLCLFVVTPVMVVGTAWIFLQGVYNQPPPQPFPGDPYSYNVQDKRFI

## CC(C)N(C)[C@@H]1CC[C@H](N2CC[C@H](Nc3ncnc4ccc(C(F)(F)F)cc34)C2=O)[C@H](NC(=O)C2CCN(C3CCN(C(=O)CCOCCOCCNC(=O)[C@H]4CC(=O)N(C)[C@@H]4c4cccnc4)CC3)CC2)C1 [Example 172, N-((1R,2S,5R)-5-(Isopropyl(methyl)amino)-2-((S)-2-oxo-3-((6-(trifluoromethyl)quinazolin-4-yl)amino)pyrrolidin-1-yl)cyclohexyl)-1′-(3-(2-(2-((2S,3S)-1-methyl-5-oxo-2-(pyridin-3-yl)pyrrolidine-3-carboxamido)ethoxy)ethoxy)propanoyl)-[1,4′-bipiperidine]-4-carboxamide]
[1]
  % Depletion of CCR2 expressing cells: 80%
[2]
  EC50: 2 nM

## CC(C)N(C)[C@@H]1CC[C@H](N2CC[C@H](Nc3ncnc4ccc(C(F)(F)F)cc34)C2=O)[C@H](NC(=O)[C@H]2CC[C@H](N3CCN(CCCCCCCCNC(=O)[C@H]4CC(=O)N(C)[C@@H]4c4cccnc4)CC3)CC2)C1 [Example 146, (2S,3S)-N-(8-(4-((1R,4r)-4-(((1R,2S,5R)-5-(Isopropyl(methyl)amino)-2-((S)-2-oxo-3-((6-(trifluoromethyl)quinazolin-4-yl)amino)pyrrolidin-1-yl)cyclohexyl)carbamoyl)cyclohexyl)piperazin-1-yl)octyl)-1-methyl-5-oxo-2-(pyridin-3-yl)pyrrolidine-3-carboxamide]
[1]
  % Depletion of CCR2 expressing cells: 83.08%
[2]
  EC50: 0.316 nM

## CCN1C(=O)C[C@H](C(=O)NCCO[C@H]2CC[C@H](OCCCC(=O)N[C@H]3CC[C@H](C(=O)N[C@@H]4C[C@H](N(C)C(C)C)CC[C@@H]4N4CC[C@H](Nc5ncnc6ccc(C(F)(F)F)cc56)C4=O)CC3)CC2)[C@H]1c1cccnc1 [Example 11, (2S,3S)-1-ethyl-N-(2-(((1,4-trans)-4-(4-(((1,4-trans)-4-(((1R,2S,5R)-5-(isopropyl(methyl)amino)-2-((S)-2-oxo-3-((6-(trifluoromethyl)quinazolin-4-yl)amino)pyrrolidin-1-yl)cyclohexyl)carbamoyl)cyclohexyl)amino)-4-oxobutoxy)cyclohexyl)oxy)ethyl)-5-oxo-2-(pyridin-3-yl)pyrrolidine-3-carboxamide]
[1]
  % Depletion of CCR2 expressing cells: 91.57%

## CC(C)N(C)[C@@H]1CC[C@H](N2CC[C@H](Nc3ncnc4ccc(C(F)(F)F)cc34)C2=O)[C@H](NC(=O)C2CCN(CCCCCCCCNC(=O)[C@H]3CC(=O)N(C)[C@@H]3c3cccnc3)CC2)C1 [Example 144, N-((1R,2S,5R)-5-(Isopropyl(methyl)amino)-2-((S)-2-oxo-3-((6-(trifluoromethyl)quinazolin-4-yl)amino)pyrrolidin-1-yl)cyclohexyl)-1-(8-((2S,3S)-1-methyl-5-oxo-2-(pyridin-3-yl)pyrrolidine-3-carboxamido)octyl)piperidine-4-carboxamide, 3Formic acid salt]
[1]
  % Depletion of CCR2 expressing cells: 85.67%
[2]
  EC50: 0.501 nM

## CN1C(=O)C[C@H](C(=O)NCCOCCOCCOCCOCCOCCOCCOCCOCCC(=O)N[C@@H]2C[C@H](NC(C)(C)C)CC[C@@H]2N2CC[C@H](Nc3ncnc4ccc(C(F)(F)F)cc34)C2=O)[C@H]1c1cccnc1 [Example 36, (2S,3S)-N-(27-(((1R,2S,5R)-5-(tert-Butylamino)-2-((S)-2-oxo-3-((6-(trifluoromethyl)quinazolin-4-yl)amino)pyrrolidin-1-yl)cyclohexyl)amino)-27-oxo-3,6,9,12,15,18,21,24-octaoxaheptacosyl)-1-methyl-5-oxo-2-(pyridin-3-yl)pyrrolidine-3-carboxamide]
[1]
  % Depletion of CCR2 expressing cells: 83.33%

## CC(C)(C)N[C@@H]1CC[C@H](N2CC[C@H](Nc3ncnc4ccc(C(F)(F)F)cc34)C2=O)[C@H](NC(=O)[C@H]2CC[C@H](NC(=O)CCCO[C@H]3CC[C@H](OCCNC(=O)[C@H]4CC(=O)N(C5CCC5)[C@@H]4c4cccnc4)CC3)CC2)C1 [Example 15, (2S,3S)-N-(2-(((1R,4S)-4-(4-(((1R,4R)-4-(((1R,2S,5R)-5-(tert-butylamino)-2-((S)-2-oxo-3-((6-(trifluoromethyl)quinazolin-4-yl)amino)pyrrolidin-1-yl)cyclohexyl)carbamoyl)cyclohexyl)amino)-4-oxobutoxy)cyclohexyl)oxy)ethyl)-1-cyclobutyl-5-oxo-2-(pyridin-3-yl)pyrrolidine-3-carboxamide]
[1]
  % Depletion of CCR2 expressing cells: 92.6%

## CC(C)N(C)[C@@H]1CC[C@H](N2CC[C@H](Nc3ncnc4ccc(C(F)(F)F)cc34)C2=O)[C@H](NC(=O)CCCOCC23CCC(COCCNC(=O)[C@H]4CC(=O)N(C)[C@@H]4c4cccnc4)(CC2)CC3)C1 [Example 59]
[2]
  EC50: 1.58 nM

## CC(C)N(C)[C@@H]1CC[C@H](N2CC[C@H](Nc3ncnc4ccc(C(F)(F)F)cc34)C2=O)[C@H](NC(=O)[C@H]2CC[C@H](NC(=O)CCCO[C@H]3CC[C@H](OCCNC(=O)[C@H]4CC(=O)N(C5CCC5)[C@@H]4c4cccnc4)CC3)CC2)C1 [Example 14, (2S,3S)-1-cyclobutyl-N-(2-(((trans)-4-(4-(((trans)-4-(((1R,2S,5R)-5-(isopropyl(methyl)amino)-2-((S)-2-oxo-3-((6-(trifluoromethyl)quinazolin-4-yl)amino)pyrrolidin-1-yl)cyclohexyl)carbamoyl)cyclohexyl)amino)-4-oxobutoxy)cyclohexyl)oxy)ethyl)-5-oxo-2-(pyridin-3-yl)pyrrolidine-3-carboxamide]
[1]
  % Depletion of CCR2 expressing cells: 47.24%

## CC(C)N(C)[C@@H]1CC[C@H](N2CC[C@H](Nc3ncnc4ccc(C(F)(F)F)cc34)C2=O)[C@H](NC(=O)[C@H]2C[C@@H](NC(=O)CCCO[C@H]3CC[C@H](OCCNC(=O)[C@H]4CC(=O)N(C)[C@@H]4c4cccnc4)CC3)C2)C1 [Example 9, (2S,3S)-N-(2-(((1S,4S)-4-(4-(((1S,3S)-3-(((1R,2S,5R)-5-(Isopropyl(methyl)amino)-2-((S)-2-oxo-3-((6-(trifluoromethyl)quinazolin-4-yl)amino)pyrrolidin-1-yl)cyclohexyl)carbamoyl)cyclobutyl)amino)-4-oxobutoxy)cyclohexyl)oxy)ethyl)-1-methyl-5-oxo-2-(pyridin-3-yl)pyrrolidine-3-carboxamide]
[3]; antagonism of ACh-stimulated human alpha1 nAChR current, patch clamp
  IC50: 82000 nM
[3]; maximum percentage antagonism at maximum concentration tested 100 μM, read-out: Maximum Response
  Emax at 100 µM: 53.9%

## CC(C)N(C)[C@@H]1CC[C@H](N2CC[C@H](Nc3ncnc4ccc(C(F)(F)F)cc34)C2=O)[C@H](NC(=O)[C@H]2CC[C@@H](NC(=O)CNC(=O)COCCOCCNC(=O)[C@H]3CC(=O)N(C)[C@@H]3c3cccnc3)CC2)C1 [Example 81, (2S,3S)-N-(2-(2-(2-((2-(((1S,4s)-4-(((1R,2S,5R)-5-(Isopropyl(methyl)amino)-2-((S)-2-oxo-3-((6-(trifluoromethyl)quinazolin-4-yl)amino)pyrrolidin-1-yl)cyclohexyl)carbamoyl)cyclohexyl)amino)-2-oxoethyl)amino)-2-oxoethoxy)ethoxy)ethyl)-1-methyl-5-oxo-2-(pyridin-3-yl)pyrrolidine-3-carboxamide]
[1]
  % Depletion of CCR2 expressing cells: 94%
